Reference: US9402875B2, “Amidated dopamine neuron stimulating peptide restoration of mitochondrial activity” (University of Kentucky Research Foundation, priority 2006, dated 2016)
Ends that are not written are not given here.

Assays:
[1] = test system: MN9D cells; assay: Oxygen consumption rate (Seahorse XF-24); type: cell-based
Method: Real-time measurement of oxygen consumption rate (OCR) of intact DNSP-11-treated MN9D cells, in the presence and absence of Complex I toxins, rotenone 1-5 ηM or TaClo 100-150 μM, were performed utilizing the Seahorse XF-24 extracellular flux analyzer. This instrument allows the simultaneous measurement of the mitochondrial bioenergetics from […] cell culture samples, without the mitochondrial isolation (and thus higher quantities of sample) needed for the standard (lower throughput) Clark-type electrode chamber. Details regarding the methods used for the Seahorse analysis were recently described in detail (Sauerbeck et al., Journal of Neuroscience Methods 198:36-43 (2011) incorporated herein by reference).
Briefly, following sensor preparation, calibration, and dose optimization, the basal and maximal oxygen consumption rates (OCR) were measured in intact MN9D neuronal cells in the absence and presence of 1 μM DNSP-11. […] Following electron transport chain uncoupling by 100 nM FCCP to measure the maximal OCR, treatment of MN9D neurons with DNSP-11 had nearly a 60% increase (p<0.001) versus control.

[2] = test system: rat brain neurons; assay: Distribution, uptake and half-life of DNSP-11 in the brain (immunostaining); type: in vivo
Method: (§1) Additional studies were carried out to determine if DNSP-11 is actively taken up into dopamine-containing neurons in vivo. A single administration of 30 μg of DNSP-11 was delivered into the rat substantia nigra. Animals were euthanized at 0.5, 1.5, 4, 24 and 48 hrs after injection to visualize distribution of DNSP-11 using antibodies raised against DNSP-11 and the ubiquitinated form of DNSP-11. DNSP-11 antibodies labelled the cytosol and neurites of neurons in the area of the substantia nigra within 30 minutes after injection. DNSP-11 was taken up by neurons in both the substantia nigra, pars reticulata (SNr) and substantia nigra, pars compacta (SNc). […] Higher power micrographs from the SNc.
(§2) To assess the distribution, uptake and degradation of DNSP-11 in the brain, young adult male F344 rats, as a test organism, received injections of 30 μg DNSP-11 in the substantia nigra, hippocampus or cortex. They were euthanized by anesthesia overdose at various time points from 30 minutes to 48 hrs later and perfused through the heart with saline followed by paraformaldehyde.
(§3) Our standard published procedures for immuncytochemical staining were used (e.g. Gash D M et al., J Comp Neurol. 1995 December 18;363(3):345-58., Grondin et al., 2002; Ai et al., 2003). A polyclonal antibody was generated against DNSP-11 in rabbits (Alpha Diagnostic International, San Antonio, Tex.). Endogenous peroxidases were inactivated by incubation with 0.2% hydrogen peroxide (H2O2) for 10 minutes and background blocked with 4% normal serum, 1% bovine serum albumin (BSA) for 1 hour. Free floating sections were incubated in primary antisera. Sections were then exposed to the appropriate biotinylated IgG (Vecto Labs, Burlingame, Calif.) for 1 hour and then incubated in avidin-biotin-peroxidase complex using Elite ABC Vectastain Kits (Vector Labs) for 1 hour. Some sections were double-labeled using procedures following our published procedures for immunocytochemical staining to identify cells with two markers (e.g. Ai et al., 2003).
(§4) Controls for immunostaining included the omission of primary antibodies and replacement of primary antibodies with normal serum of the same species.

[3] = as above; type: in vivo, rat; settings: male, F344, rat, brain, 30 ug; 30 μg intracerebral injection
Method: as §1, §2, §3, §4

[4] = test system: mitochondrial-associated genes in the substantia nigra; assay: Gene array analysis (Affymetrix) of substantia nigra after DNSP-11; type: in vivo, rat; settings: 48 h after bilateral 30 μg
Method: Changes in expression of mitochondrial-associated genes in the substantia nigra (SN) of three young adult (5 month old) male F344 rats 48 hours following bilateral intranigral injections of DNSP-11 into the substantial nigra was assessed as follows.
A 3 μg/μl DNSP-11 peptide solution was prepared in citrate buffer and filter sterilized. Stereotaxic injections were made of 30 μg DNSP-11 in 10 ul citrate buffer into the substantia nigra on each side of the brain. Controls received […] injections of vehicle. Forty-eight hours later, the animals were euthanized, the brains quickly recovered and sectioned so that the bilateral SN could be dissected out as one block of tissue and snap frozen in liquid nitrogen. RNA was extracted from the SN samples for gene array analysis, which was conducted on Affymetrix Version II chips. A gene chip was run for each of the six rats: three bilateral vehicle recipients, three bilateral 30 μg DNSP-11 recipients.

[5] = 30 μg bolus into mid-substantia nigra

PPEAPAEDRSL-NH2 [DNSP-11, PPEAPAEDRSL-amide]
basal and maximal OCRs, protection from rotenone ([1]; 1 nM, 2.5 nM and 5 nM rotenone): protection | basal OCR vs control treatment ([1]; 1 μM DNSP-11): no significant effect | reserve respiratory capacity (ratio maximal/basal OCR) ([1]; 1 μM DNSP-11): significantly increases | maximal OCR, increase versus control ([1]; 1 μM DNSP-11, uncoupling by 100 nM FCCP, p<0.001): ~60% | basal and maximal OCRs, protection from TaClo ([1]; 100 μM and 150 μM TaClo): protection | spread in the anterior-posterior plane [2, 5]: ~3 mm | spread in the medial-lateral plane [2, 5]: ≤ 2 mm | time to uptake by neurons after injection ([2]; 30 μg injected into rat substantia nigra (all brain areas evaluated)): ≤ 30 min | immunohistochemical staining for DNSP-11 ([2]; 3 hrs after injection into substantia nigra): diminished | immunohistochemical staining for DNSP-11 ([2]; 48 hours post peptide administration): no evidence of DNSP-11 | uptake into neurons of striatum, hippocampus and cortex ([2]; stereotaxic injections of 30 μg): Uptake was observed into neurons | half-life [3]: < 24 h | APP FOLD CHANGE ([4]; vs control): −1.08 | BACEI FOLD CHANGE ([4]; vs control): −1.09 | CASP3 FOLD CHANGE ([4]; vs control): 1.18 | CASP8 FOLD CHANGE ([4]; vs control): 1.25 | CAT FOLD CHANGE ([4]; vs control): 1.09 | COX6A2 FOLD CHANGE ([4]; vs control): 1.75 | COX6B1 FOLD CHANGE ([4]; vs control): 1.04 | COX17 FOLD CHANGE ([4]; vs control): 1.11 | GLRX2 FOLD CHANGE ([4]; vs control): 1.09 | GPX7 FOLD CHANGE ([4]; vs control): 1.19 | MAOB FOLD CHANGE ([4]; vs control): 1.13 | MAP2K4 FOLD CHANGE ([4]; vs control): −1.12 | MAPK9 FOLD CHANGE ([4]; vs control): −1.21 | MAPK10 FOLD CHANGE ([4]; vs control): −1.08 | NDUFA7 FOLD CHANGE ([4]; vs control): 1.07 | PARK7 FOLD CHANGE ([4]; vs control): 1.02 | PRDX5 FOLD CHANGE ([4]; vs control): 1.13 | PSEN1 FOLD CHANGE ([4]; vs control): 1.16 | TXN2 FOLD CHANGE ([4]; vs control): 1.10 | CAT catalase expression level, PEPTIDE ([4]; P 0.015): 2828.2 | CASP8 caspase 8 expression level, PEPTIDE ([4]; control 178.1, P 0.006): 219.4 | GPX7 glutathione peroxidase 7 expression level, PEPTIDE ([4]; control 183.8, P 0.015): 194.2 | CASP3 caspase 3 expression level, PEPTIDE ([4]; control 367.5, P 0.024): 421.4 | BACEI beta-site APP-cleaving enzyme 1 expression level, PEPTIDE ([4]; control 510.6, P 0.016): 451.6 | COX6A2 cytochrome c oxidase subunit Via polypeptide2 expression level, PEPTIDE ([4]; control 520.6, P 0.014): 814.1 | MAPK10 mitogen-activated protein kinase 10 expression level, PEPTIDE ([4]; control 552.8, P 0.008): 505.0 | PSEN1 presenilin 1 expression level, PEPTIDE ([4]; control 563.2, P 0.022): 673.5 | MAPK9 mitogen-activated protein kinase 9 expression level, PEPTIDE ([4]; control 930.0, P 0.007): 770.7 | TXN2 thioredoxin 2 expression level, PEPTIDE ([4]; control 1378.5, P 0.010): 1511.9 | MAOB monoamine oxidase B expression level, PEPTIDE ([4]; control 1974.2, P 0.012): 2199.8 | COX17 cytochrome c oxidase assembly homolog expression level, PEPTIDE ([4]; control 2017.8, P 0.025): 2326.1 | MAP2K4 mitogen-activated protein kinase kinase 4 expression level, PEPTIDE ([4]; control 2744.4, P 0.043): 2422.4 | NDUFA7 NADH dehydrogenase (ubiquinone) 1 alpha subcomplex, 7 expression level, PEPTIDE ([4]; control 2943.0, P 0.046): 3125.4 | GLRX2 glutaredoxin 2 expression level, PEPTIDE ([4]; control 3472.2, P <0.001): 3618.7 | PRDX5 peroxiredoxin 5 expression level, PEPTIDE ([4]; control 4790.1, P 0.020): 5569.8 | PARK7 DJ-1 expression level, PEPTIDE ([4]; control 5159.4, P 0.032): 5299.2 | COX6B1 cytochrome c oxidase subunit Vib polypeptide 1 expression level, PEPTIDE ([4]; control 7536.6, P 0.044): 7869.7 | APP amyloid beta (A4) precursor protein expression level, PEPTIDE ([4]; control 10117.2, P 0.006): 9734.4
